Results: patent publication US12329729B1, “Method of treating cancer in a subject” (IMAM MOHAMMAD IBN SAUD ISLAMIC UNIVERSITY, priority 2024, dated 2025)
≈ marks a conversion by molar mass, not a printed value.

What was measured:
Assay type in all cases: cell-based
[1] = tested on: A549; test: IC50 towards A549 cancer cell line; settings: Homo sapiens
[2] = tested on: PC3; test: IC50 towards PC3 cancer cell line; settings: Homo sapiens, PC-3
[3] = tested on: FaDu; test: IC50 towards FaDu cancer cell line; settings: Homo sapiens
[4] = tested on: MDA-MB-468; test: IC50 towards MDA-MB-468 cancer cell line; settings: Homo sapiens
[5] = tested on: HeLa; test: IC50 towards HeLa cancer cell line; settings: Homo sapiens
[6] = tested on: p53; test: Upregulation of pro-apoptotic protein p53; settings: compared to the control (untreated) cells
[7] = tested on: BAX; test: Upregulation of pro-apoptotic protein BAX; settings: compared to the control (untreated) cells
[8] = tested on: Caspase 3; test: Upregulation of pro-apoptotic protein Caspase 3; settings: compared to the control (untreated) cells
[9] = tested on: Caspase 6; test: Upregulation of pro-apoptotic protein Caspase 6; settings: compared to the control (untreated) cells
[10] = tested on: Caspase 8; test: Upregulation of pro-apoptotic protein Caspase 8; settings: compared to the control (untreated) cells
[11] = tested on: Caspase 9; test: Upregulation of pro-apoptotic protein Caspase 9; settings: compared to the control (untreated) cells
[12] = tested on: BCL-2; test: Downregulation of anti-apoptotic protein BCL-2; settings: compared to the control (untreated) cells
[13] = tested on: MMP2; test: Downregulation of; settings: compared to the control (untreated) cells
[14] = tested on: MMP9; test: Downregulation of; settings: compared to the control (untreated) cells
[15] = tested on: COX-2; test: Downregulation of pro-inflammatory marker COX-2; settings: compared to the control (untreated) cells
[16] = tested on: IL-6; test: Downregulation of; settings: compared to the control (untreated) cells
[17] = tested on: IL-1β; test: Downregulation of pro-inflammatory marker IL-1β; settings: compared to the control (untreated) cells

SMILES	IC50 [1] [µg/mL]	IC50 [2] [µg/mL]	IC50 [3] [µg/mL]	IC50 [4] [µg/mL]	IC50 [5] [µg/mL]	upregulation of p53 [6] [fold changes]	upregulation of BAX [7] [fold changes]	upregulation of Caspase 3 [8] [fold changes]	upregulation of Caspase 6 [9] [fold changes]	upregulation of Caspase 8 [10] [fold changes]	upregulation of Caspase 9 [11] [fold changes]	downregulation of BCL-2 [12] [fold changes]	downregulation of MMP2 [13] [fold changes]	downregulation of MMP9 [14] [fold changes]	downregulation of COX-2 [15] [fold changes]	downregulation of IL-6 [16] [fold changes]	downregulation of IL-1β [17] [fold changes]
CCOc1ccc(Oc2ccc(/C=N/c3ccc([Se][Se]c4ccc(/N=C/c5ccc(Oc6ccc(OCC)cc6)cc5)cc4)cc3)cc2)cc1 [YS9, N,N′-(Diselanediylbis(4,1-phenylene))bis(1-(4-(4-ethoxyphenoxy)phenyl)methanimine)]	4.4 (≈ 5.56 µM)	12 (≈ 15.1 µM)	4.73 (≈ 5.98 µM)	6 (≈ 7.59 µM)	4 (≈ 5.06 µM)	3.50	1.95	5.82	10.37	3.16	2.41	0.35	0.31	0.48	0.37	0.48	0.46
COc1cccc2c1C(=O)c1c(O)c3c(c(O)c1C2=O)C[C@@](O)(C(=O)CO)C[C@@H]3O[C@H]1C[C@H](N)[C@H](O)[C@H](C)O1 [doxorubicin, reference compound]		5.83 (≈ 10.7 µM)	13.1 (≈ 24.1 µM)														
